Experimental data published in patent US10428048B2, “Androgen receptor antagonists” (CITY OF HOPE, priority 2015, dated 2019).
“Also recorded” adds a separate entry of the source. Structures can show the parent of a compound that is named as a salt. Where two headings read alike, the source gives them in different places.

Experiments:
LNCaP cells = assay: LNCaP prostate cancer cell growth (DAPI staining); format: cell-based, human; details: for Inhibition of LNCaP cell growth in culture: AR-dependent LNCaP cells; for inhibition at 0.3 µM: Homo sapiens, LNCaP, read-out: LNCaP growth inhibition at 300 nM
Experimental: (§1) For growth curves, cells were transferred to charcoal-stripped media three days before they were split and plated at a density of approximately 20,000 cells/well in 48 well plates, in quadruplicate. The assay was repeated three times. The following day, medium with the indicated drugs was added to the cells. Proliferation was determined by measuring the DNA content of the cells in each well. Each day, the cells were fixed in 100% cold methanol, followed by staining for 5 min at RT with 0.2 ng/mL 4′,6-diamidino-2-phenylindole (DAPI) in PBS. The cells were washed with PBS, then read on a fluorescence plate reader (FPR) using 365/439 excitation/emission wavelengths. A student's T test was used to determine significant differences among populations.

[1] = Toxicity studies, MTD determination; details: in vivo
Experimental: In DMSO/PBS formulation, with MTD single dose: IV: ˜1 mg/kg; PO (oral): not determined due to poor absorption; and IP: ˜5 mg/kg. With MTD daily dosing: IP: ˜1 mg/kg. In Beta cyclodextrin formulation: MTD single dose: IV: not determined; PO (oral); ˜200 mg/kg; IP: >10 mg/kg. In MTD daily dosing: IP: at least 5 mg/kg; PO: at least 100 mg/kg.

other nuclear receptors = assay: Specificity for AR versus other nuclear receptors; format: cell-based; details: P24 0.1, 0.3, 1 μM; P7 0.3, 1, 3 μM
22Rv1 cells = assay: 22Rv1 cell growth in culture; format: cell-based, human; details: androgen-independent, AR splice variant expressing 22Rv1 cells; tosylate
Experimental: as §1

[2] = tested on: enzalutamide (enz)-resistant LNCaP cells; assay: Enzalutamide-resistant LNCaP cell growth in culture; format: cell-based, human
[3] = Solubility in solvents and formulations
[4] = Further PK studies, single dose, DMSO/PBS or BCD formulation; details: blood at 0.5, 2 and 24-hrs; for Drug level in blood after administration, BCD formulation: 25 mg/kg single dose; for Drug level in blood after administration, DMSO/PBS formulation: 1 mg/kg single dose
Description: Treatment: 1-2 mice with single dose and blood at 0.5, 2 and 24-hrs.

AR target genes = assay: Inhibition of AR activity in vivo (qRT-PCR of prostate tissue); parameters: species or system Mice; details: 5 mg/kg via osmotic pump for 4 weeks
Experimental: Total RNA was isolated from homogenized prostate or tumor tissue using an RNAeasy kit (Qiagen). RNA was reverse-transcribed (MMLV-RT; Invitrogen), and the expression of androgen-regulated genes was assessed by qPCR using a StepOne Real Time PCR System (Applied Biosystems), using SYBR green (Invitrogen) as the detecting dye and Rox (Invitrogen) as the reference dye. Differences between treated (x) and no DHT control (y) samples were normalized to RPL19 transcript levels (i.e., androgen-unresponsive) and determined with the following calculation: (2[Ctxgene1−Ctygene1])/(2[CtxRPL19−CtyRPL19]).

[5] = P24 microsomal analysis, human microsomes; format: in vitro ADME
Experimental: (§2) FIG. 16. P24 microsomal analysis.
(§3) As depicted in FIG. 16, the concentration of compound. P24 solution tested with incubation with microsomes.

[6] = P24 microsomal analysis, mouse microsomes; format: in vitro ADME
Experimental: as §2, §3

[7] = ip, Beta cyclodextrin formulation, IP, daily dosing, read-out: MTD daily dosing IP
[8] = ip, Beta cyclodextrin formulation, IP, single dose, read-out: MTD single dose IP
[9] = ip, DMSO/PBS formulation, IP, daily dosing, read-out: MTD daily dosing IP
[10] = ip, DMSO/PBS formulation, IP, single dose, read-out: MTD single dose IP
[11] = iv, DMSO/PBS formulation, IV, single dose, read-out: MTD single dose IV
[12] = po, Beta cyclodextrin formulation, PO, daily dosing, read-out: MTD daily dosing PO
[13] = po, Beta cyclodextrin formulation, PO, single dose, read-out: MTD single dose PO (oral)
[14] = 100 ng/ml P24, absence of NADPH
[15] = 100 ng/ml P24, presence of NADPH

| Structure (SMILES) | Inhibition of LNCaP cell growth in culture (LNCaP cells; tosylate) | inhibition at 0.3 µM (LNCaP cells) [%] | MTD [1, 7] [mg/kg] | MTD [1, 8] [mg/kg] | MTD [1, 9] [mg/kg] | MTD [1, 10] [mg/kg] | MTD [1, 11] [mg/kg] | MTD [1, 12] [mg/kg] | MTD [1, 13] [mg/kg] | Activity against other nuclear receptors (other nuclear receptors) | Inhibition of 22Rv1 cell growth in culture (22Rv1 cells) | Inhibition of growth of enzalutamide-resistant LNCaP cells [2] | Drug level in blood after administration, BCD formulation [4] | Drug level in blood after administration, DMSO/PBS formulation [4] | other results |
| --- | --- | --- | --- | --- | --- | --- | --- | --- | --- | --- | --- | --- | --- | --- | --- |
| Cc1cc(/C=C/c2ccc3cc(N(C)C)ccc3[n+]2C)c(C)[nH]1.Cc1ccc(S(=O)(=O)[O-])cc1 [P7, (E)-6-Dimethylamino-2-(2-(2,5-dimethyl-1H-pyrrol-3-yl)ethenyl)-1-methylquinolinium tosylate] | inhibit the growth; also recorded: inhibited | 100 | ≥ 5 | > 10 | ~1 | ~5 | ~1 | ≥ 100 | ~200 | little activity | inhibit the growth; also recorded: inhibited | inhibit the growth | more continuous peak | almost no drug | solubility ([3]; DMSO, organic solvent or mixture): ~10000 µg/mL; solubility ([3]; acetonitrile, organic solvent or mixture): < 5000 µg/mL; solubility ([3]; beta cyclodextrin, aqueous with cosolvent or surfactant or cyclodextrin): ~5000 µg/mL; solubility ([3]; buffer B (aqueous), aqueous buffer): < 5000 µg/mL; solubility ([3]; ethanol, organic solvent or mixture): ~5000 µg/mL; solubility ([3]; gamma cyclodextrin, aqueous with cosolvent or surfactant or cyclodextrin): ~5000 µg/mL |
| CNC(=O)c1ccc(N2C(=S)N(c3ccc(C#N)c(C(F)(F)F)c3)C(=O)C2(C)C)cc1F [enzalutamide, reference compound] | – | – | – | – | – | – | – | – | – | – | – | – | – | – | Inhibition of LNCaP cell growth in culture (LNCaP cells): inhibited |
| Cc1cccnc1-n1c(C)cc(/C=C/c2ccc3cc(N(C)C)ccc3[n+]2C)c1C [P24, (E)-6-Dimethylamino-2-(2-(2,5-dimethyl-1-(3-methylpyridin-2-yl)-1H-pyrrol-3-yl)ethenyl)-1-methylquinolinium tosylate] | inhibit the growth; also recorded: inhibited | 100 | ≥ 5 | > 10 | ~1 | ~5 | ~1 | ≥ 100 | ~200 | little activity | inhibit the growth; also recorded: inhibited | inhibit the growth | significant spike | almost no drug | Inhibition of AR target genes in prostate tissue (qRT-PCR) (AR target genes): inhibition of AR target genes; Breakdown in microsomes without NADPH (chemical stability) [5, 14]: lack of breakdown; Metabolism in microsomes, NADPH dependence [5, 15]: NADPH dependent; Breakdown in microsomes without NADPH (chemical stability) [6, 14]: lack of breakdown; Metabolism in microsomes, NADPH dependence [6, 15]: NADPH dependent |
